# In patent US20250115654A1, “PHARMACEUTICAL COMPOSITION OF GLP-1 RECEPTOR AND GIP RECEPTOR DUAL AGONIST, AND USE THEREOF” (FUJIAN SHENGDI PHARMACEUTICAL CO., LTD., priority 2021, published 2025):
# Numbered stars: 1 amine (or outer) side, 2 acyl side, 3 side chain; on linkers, the order of the positions; unused ones are H or OH. Square brackets hold non-standard residues; d marks the D form. Side chains are listed from the residue outwards. Peptide text beside a SMILES is read from it. * marks the point of attachment. C20 diacid = O=C(O)CCCCCCCCCCCCCCCCCCC(=O)*; γGlu = O=C(O)[C@H](CCC(=O)[*:2])N[*:1]; AEEA = NCCOCCOCC(=O)O; Aib = CC(C)(N)C(=O)O
# Assays:
# DIO mice = test: Food intake of DIO (diet-induced obesity) mice; format: in vivo, C57BL/6 mice; settings: 100 nmol/kg
# Description: High-fat food-induced-obesity male C57BL/6 mice (weighing 35-55 g, aged 10-12 weeks, purchased from Shanghai Jiesijie Laboratory Animal Co., Ltd.) were tested. […] According to the experimental design, the body weight of each mouse was measured and recorded on day 0, day 3, day 6, and so on to day 27, the average body weight of each group of mice was calculated, and body weight change curves were plotted by taking the body weight on the first day as the standard. At the end, the fat and other visceral organs of each part of the mice were taken out and weighed, and the viscera/brain ratio for fat in each part of each mouse was calculated. The effect of the drug on the fat was determined by comparing the change in the viscera/brain ratio for fat of different parts of each group of mice.
# The food intake of mice in each group was measured daily during the experiment.
# db/db mice = test: Glucose metabolism level of db/db mice (fasting and random blood glucose, glycated hemoglobin); format: in vivo, C57BL/KsJ-db/db mice; settings: for Glycated hemoglobin (%, mean ± SD): end of experiment day 28
# Description: Each administration group had 10 db/db mice. According to the experimental design, tail vein blood was collected by needle pricking on days 0, 7, 14, 21, and 28 and determined for fasting blood glucose levels with a glucometer and glucose dipsticks, and the mice were fasted 6 h prior to the blood collection at each time point. Tail vein blood was collected by needle pricking on days 3, 10, 17, 24, and 27 and randomly determined for blood glucose levels with a glucometer. Finally, at the end of the experiment on day 28, all the animals in the administration groups were subjected to 2-5% isoflurane inhalation anesthesia, and 100 μL of whole blood was collected through the orbit of each mouse using an EDTA-K2 anticoagulation tube and used for the determination of glycated hemoglobin.
smiles,measurement,setting,value
CC[C@H](C)[C@H](NC(=O)[C@H](CCCCN)NC(=O)[C@H](CCC(=O)O)NC(=O)[C@H](CCCCNC(=O)COCCOCCNC(=O)COCCOCCNC(=O)CC[C@H](NC(=O)CCCCCCCCCCCCCCCCCCC(=O)O)C(=O)O)NC(=O)[C@H](Cc1ccc(O)cc1)NC(=O)[C@@H](NC(=O)[C@H](CO)NC(=O)[C@H](Cc1ccc(O)cc1)NC(=O)[C@H](CC(=O)O)NC(=O)[C@H](CO)NC(=O)[C@@H](NC(=O)[C@H](Cc1ccccc1)NC(=O)[C@@H](NC(=O)CNC(=O)[C@H](CCC(=O)O)NC(=O)C(C)(C)NC(=O)[C@@H](N)Cc1ccc(O)cc1)[C@@H](C)O)[C@@H](C)O)[C@@H](C)CC)C(=O)N[C@@H](C)C(=O)N[C@@H](C)C(=O)N[C@@H](CCC(N)=O)C(=O)N[C@@H](CCC(=O)O)C(=O)N[C@@H](Cc1ccccc1)C(=O)N[C@H](C(=O)N[C@@H](CC(N)=O)C(=O)N[C@@H](Cc1c[nH]c2ccccc12)C(=O)N[C@@H](CC(C)C)C(=O)N[C@@H](CC(C)C)C(=O)N[C@@H](C)C(=O)NCC(=O)NCC(=O)N1CCC[C@H]1C(=O)N[C@@H](CO)C(=O)N[C@@H](CO)C(=O)NCC(=O)N[C@@H](C)C(=O)N1CCC[C@H]1C(=O)N1CCC[C@H]1C(=O)N1CCC[C@H]1C(=O)N[C@@H](CO)C(N)=O)C(C)C [Compound 18#] (H-Y[Aib]EGTFTSDYSIYK([AEEA-AEEA-γGlu-C20 diacid])EKIAAQEFVNWLLAGGPSSGAPPPS-NH2),cumulative food intake,DIO mice; 28 days after the administration,36.7 g
same,daily food intake ration,DIO mice; day 1 after administration,0.2 ± 0.1 g
same,daily food intake ration,"DIO mice; day 1 after administration, listed as 18#",0.2 g
same,daily food intake ration,DIO mice; day 2 after administration,0.1 ± 0.1 g
same,daily food intake ration,DIO mice; day 3 after administration,0.4 ± 0.1 g
same,daily food intake ration,DIO mice; day 4 after administration,0.4 ± 0.2 g
same,daily food intake ration,DIO mice; day 5 after administration,0.6 ± 0.2 g
same,daily food intake ration,DIO mice; day 6 after administration,0.7 ± 0.3 g
same,daily food intake ration,DIO mice; day 7 after administration,0.5 ± 0.2 g
same,daily food intake ration,DIO mice; day 8 after administration,0.7 ± 0.5 g
same,daily food intake ration,DIO mice; day 9 after administration,0.9 ± 0.6 g
same,daily food intake ration,DIO mice; day 10 after administration,0.9 ± 0.6 g
same,daily food intake ration,DIO mice; day 11 after administration,1.1 ± 0.5 g
same,daily food intake ration,DIO mice; day 12 after administration,2 ± 1 g
same,daily food intake ration,DIO mice; day 13 after administration,1.3 ± 0.7 g
same,daily food intake ration,DIO mice; day 14 after administration,1.7 ± 0.5 g
same,daily food intake ration,DIO mice; day 15 after administration,2 ± 0.4 g
same,daily food intake ration,DIO mice; day 16 after administration,1 ± 0.3 g
same,daily food intake ration,DIO mice; day 17 after administration,1.6 ± 0.3 g
same,daily food intake ration,DIO mice; day 18 after administration,2 ± 0.4 g
same,daily food intake ration,DIO mice; day 19 after administration,1.4 ± 0.2 g
same,daily food intake ration,DIO mice; day 20 after administration,1.8 ± 0.3 g
same,daily food intake ration,DIO mice; day 21 after administration,2.4 ± 0.3 g
same,daily food intake ration,DIO mice; day 22 after administration,1.4 ± 0.5 g
same,daily food intake ration,DIO mice; day 23 after administration,2.1 ± 0.5 g
same,daily food intake ration,DIO mice; day 24 after administration,2.3 ± 0.4 g
same,daily food intake ration,DIO mice; day 25 after administration,1.5 ± 0.3 g
same,daily food intake ration,DIO mice; day 26 after administration,1.6 ± 0.4 g
same,daily food intake ration,DIO mice; day 27 after administration,2.8 ± 0.3 g
same,daily food intake ration,DIO mice; day 28 after administration,1.2 ± 0.4 g
same,cumulative food intake,DIO mice; within 5 days after the administration,1.8 g
same,"Concentration of fasting blood glucose (mMol/L, mean ± SD)","db/db mice; 10 nmol/kg, Day 0",14.77 ± 1.30 mmol/L
same,"Concentration of random blood glucose (mMol/L, mean ± SD)","db/db mice; 10 nmol/kg, Day 0",20.42 ± 1.56 mmol/L
same,"Concentration of fasting blood glucose (mMol/L, mean ± SD)","db/db mice; 10 nmol/kg, Day 7",6.05 ± 0.42 mmol/L
same,"Concentration of random blood glucose (mMol/L, mean ± SD)","db/db mice; 10 nmol/kg, Day 10",20.66 ± 1.48 mmol/L
same,"Concentration of fasting blood glucose (mMol/L, mean ± SD)","db/db mice; 10 nmol/kg, Day 14",6.30 ± 0.46 mmol/L
same,"Concentration of random blood glucose (mMol/L, mean ± SD)","db/db mice; 10 nmol/kg, Day 17",18.91 ± 1.33 mmol/L
same,"Concentration of fasting blood glucose (mMol/L, mean ± SD)","db/db mice; 10 nmol/kg, Day 21",7.89 ± 0.81 mmol/L
same,"Concentration of random blood glucose (mMol/L, mean ± SD)","db/db mice; 10 nmol/kg, Day 24",21.17 ± 2.07 mmol/L
same,"Concentration of fasting blood glucose (mMol/L, mean ± SD)","db/db mice; 10 nmol/kg, Day 28",9.41 ± 0.97 mmol/L
same,"Glycated hemoglobin (%, mean ± SD)",db/db mice; 10 nmol/kg,4.71 ± 0.23 %
same,"Concentration of fasting blood glucose (mMol/L, mean ± SD)","db/db mice; 30 nmol/kg, Day 0",14.13 ± 1.32 mmol/L
same,"Concentration of random blood glucose (mMol/L, mean ± SD)","db/db mice; 30 nmol/kg, Day 0",16.73 ± 1.59 mmol/L
same,"Concentration of fasting blood glucose (mMol/L, mean ± SD)","db/db mice; 30 nmol/kg, Day 7",6.21 ± 0.26 mmol/L
same,"Concentration of random blood glucose (mMol/L, mean ± SD)","db/db mice; 30 nmol/kg, Day 10",15.88 ± 1.86 mmol/L
same,"Concentration of fasting blood glucose (mMol/L, mean ± SD)","db/db mice; 30 nmol/kg, Day 14",6.40 ± 0.57 mmol/L
same,"Concentration of random blood glucose (mMol/L, mean ± SD)","db/db mice; 30 nmol/kg, Day 17",17.30 ± 1.17 mmol/L
same,"Concentration of fasting blood glucose (mMol/L, mean ± SD)","db/db mice; 30 nmol/kg, Day 21",7.03 ± 0.52 mmol/L
same,"Concentration of random blood glucose (mMol/L, mean ± SD)","db/db mice; 30 nmol/kg, Day 24",17.43 ± 1.92 mmol/L
same,"Concentration of fasting blood glucose (mMol/L, mean ± SD)","db/db mice; 30 nmol/kg, Day 28",9.68 ± 1.03 mmol/L
same,"Glycated hemoglobin (%, mean ± SD)",db/db mice; 30 nmol/kg,4.53 ± 0.17 %
same,"Concentration of fasting blood glucose (mMol/L, mean ± SD)","db/db mice; 100 nmol/kg, Day 0",14.67 ± 1.46 mmol/L
same,"Concentration of random blood glucose (mMol/L, mean ± SD)","db/db mice; 100 nmol/kg, Day 0",9.11 ± 1.25 mmol/L
same,"Concentration of fasting blood glucose (mMol/L, mean ± SD)","db/db mice; 100 nmol/kg, Day 7",5.85 ± 0.33 mmol/L
same,"Concentration of random blood glucose (mMol/L, mean ± SD)","db/db mice; 100 nmol/kg, Day 10",12.34 ± 1.12 mmol/L
same,"Concentration of fasting blood glucose (mMol/L, mean ± SD)","db/db mice; 100 nmol/kg, Day 14",6.25 ± 0.32 mmol/L
same,"Concentration of random blood glucose (mMol/L, mean ± SD)","db/db mice; 100 nmol/kg, Day 17",11.89 ± 1.15 mmol/L
same,"Concentration of fasting blood glucose (mMol/L, mean ± SD)","db/db mice; 100 nmol/kg, Day 21",6.13 ± 0.19 mmol/L
same,"Concentration of random blood glucose (mMol/L, mean ± SD)","db/db mice; 100 nmol/kg, Day 24",11.51 ± 0.95 mmol/L
same,"Concentration of fasting blood glucose (mMol/L, mean ± SD)","db/db mice; 100 nmol/kg, Day 28",7.89 ± 0.41 mmol/L
same,"Glycated hemoglobin (%, mean ± SD)","db/db mice; 100 nmol/kg, listed as 18#",3.78%
same,"Glycated hemoglobin (%, mean ± SD)","db/db mice; 100 nmol/kg, listed as #18",3.78 ± 0.13 %
